As a reminder, the IC50 is the point on the concentration scale where inhibition reaches its midpoint.

In one assay the target is human P2X3 receptor (Homo sapiens (Human), UniProt P56373). The assay can be described thus: Evaluation of human P2X3 receptor inhibitory activity (Fluo-3 calcium fluorescence, FDSS 3000, ATP stimulation).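 Further: stimulus was 50 nM ATP with fluorescence followed for 3 min, and the response per well was peak post-ATP fluorescence divided by the reading at measurement start.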 Type of assay: cell-based. The settings on record: C6BU-1 cells stably expressing human P2X3 receptor.
Chain of human P2X3 receptor (P56373 whole entry): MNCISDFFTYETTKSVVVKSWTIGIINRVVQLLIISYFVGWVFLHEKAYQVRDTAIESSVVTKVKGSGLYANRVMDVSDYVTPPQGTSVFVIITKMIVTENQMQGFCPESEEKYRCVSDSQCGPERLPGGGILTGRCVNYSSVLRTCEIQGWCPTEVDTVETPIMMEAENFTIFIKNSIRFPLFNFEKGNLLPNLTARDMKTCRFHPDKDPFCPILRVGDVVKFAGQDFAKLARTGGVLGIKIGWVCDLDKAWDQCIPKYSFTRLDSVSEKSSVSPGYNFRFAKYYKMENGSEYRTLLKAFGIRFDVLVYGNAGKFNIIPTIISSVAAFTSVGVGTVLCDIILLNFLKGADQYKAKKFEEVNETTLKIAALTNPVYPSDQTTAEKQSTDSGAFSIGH
Regarding `COCc1ccc(/N=c2\[nH]c(=O)n(C[C@H](C)C(=O)O)c(=O)n2Cc2ccc(Cl)cc2)cc1` [Compound I-0686], the 50% inhibitory concentration (IC50) came to 605 nM.

For the compound `COC(=O)[C@@H](C)Cn1c(=O)[nH]/c(=N\c2ccc(OC(C)C)c(F)c2)n(Cc2ccc(F)cc2)c1=O` [Compound I-0617], the 50% inhibitory concentration (IC50) came to 67 nM.

Take `COC(=O)[C@H](C)[C@H](C)n1c(=O)[nH]/c(=N\c2ccc(OC3CCC3)c(C)c2)n(Cc2ccc(Cl)cc2)c1=O` [Compound I-1403]: the IC50 stood at 50 nM. Still for that read-out and setting: under `CCOC(=O)CCn1c(=O)[nH]/c(=N\c2ccc(OC(C)C)c(F)c2)n(CC2CCCCCCC2)c1=O` [Compound I-1911] stands 253 nM.

Turning to `COC(=O)C(C)(C)n1c(=O)[nH]/c(=N\c2ccc(O)c(Cl)c2)n(Cc2ccc(Cl)cc2)c1=O` [Compound I-0676], the IC50 was 30 nM. Same read-out and setting: in the case of `COC(=O)[C@@H](C)Cn1c(=O)[nH]/c(=N\c2ccc(NC(C)=O)cc2)n(Cc2ccc(C)cc2)c1=O` [Compound I-1415] it was 532 nM; in that of `Cc1ccc(Cn2c(=O)n(CCC(=O)O)c(=O)[nH]/c2=N\c2ccc(Cl)cc2)cc1` [Compound I-2045], 975 nM; in that of `O=c1[nH]/c(=N\c2ccc3nc(C4CC4)sc3c2)n(Cc2ccc(Cl)cc2)c(=O)n1CC(CO)CO` [Compound I-1983], 10 nM. Same read-out and setting: under `CC(C)Oc1ccc(/N=c2\[nH]c(OCC(=O)NN(C)C)nc(=O)n2Cc2ccc(Cl)cc2)cc1F` [Compound I-0583] stands 38 nM; under `CCOc1ccc2cc(/N=c3\[nH]c(=O)n(CCC(=O)O)c(=O)n3Cc3ccc(C)cc3)ccc2c1` [Compound I-2130], 790 nM; under `COC(=O)CCn1c(=O)[nH]/c(=N\c2ccc(OC(C)C)c(Cl)c2)n(Cc2ccc(C)cc2)c1=O` [Compound I-2023], 4 nM. `Cc1cc2cc(/N=c3\[nH]c(=O)n(CC(CO)CO)c(=O)n3Cc3ccc(Cl)cc3)ccc2o1` [Compound I-2070]: the IC50 amounted to 19 nM. Same read-out and setting: in the case of `COC(=O)[C@H](C)[C@H](C)n1c(=O)[nH]/c(=N\c2ccc3oc(C)cc3c2)n(Cc2ccc(C)cc2)c1=O` [Compound I-1325] it was 28 nM.

The same assay, now with this note: C6BU-1 cells stably expressing human P2X3 receptor, Fluo-3 fluorescence, FDSS 3000.
For `CC(C)n1cnc2cc(/N=c3\[nH]c(=O)n([C@@H](C)[C@@H](C)C(=O)O)c(=O)n3Cc3ccc(Cl)cc3)ccc21` [Compound I-1772], the concentration for half-maximal inhibition (IC50) was 297 nM. On the same count and under the same terms, under `CCOC(=O)CCn1c(=O)[nH]/c(=N\c2ccc(O[C@H](C)C(F)(F)F)cc2)n(Cc2ccc(C)cc2)c1=O` [Compound I-1021] stands 7 nM.

As to `COC(=O)[C@@H](C)Cn1c(=O)[nH]/c(=N\c2cccc(SC)c2)n(Cc2ccc(C)cc2)c1=O` [Compound I-1153], the IC50 worked out at 71 nM. The same measure, in the same setting: under `CCCOc1ccc(/N=c2\[nH]c(=O)n(C[C@@H](CC)C(=O)O)c(=O)n2Cc2ccc(Cl)cc2)cc1` [Compound I-1039] stands 83 nM.

For the compound `O=C(NCC(F)(F)F)c1cc(Oc2ccc(/N=c3\[nH]c(=O)[nH]c(=O)n3Cc3ccc(Cl)cc3)cc2)ccn1` [Compound I-1898], the half-maximal inhibitory concentration (IC50) is 11 nM. The same measure, in the same setting: under `COC(=O)CCn1c(=O)[nH]/c(=N\C2CCCCC2)n(Cc2ccc(C)cc2)c1=O` [Compound I-1668] stands 309 nM; under `COC(=O)Cn1c(=O)[nH]/c(=N\c2ccc(Oc3ccc(OC)nc3)cc2)n(Cc2ccc(Cl)cc2)c1=O` [Compound I-1753], 9 nM.

On to `COC(=O)[C@@H](C)Cn1c(=O)[nH]/c(=N\c2ccc(CC(C)C)c(C)c2)n(Cc2ccc(Cl)cc2)c1=O` [Compound I-0947], for which the IC50 was determined as 24 nM. Turning to `COC(=O)[C@@H](C)Cn1c(=O)[nH]/c(=N\c2ccc(OC(C)C)c(OC(C)C)c2)n(Cc2ccc(C)cc2)c1=O` [Compound I-1130], the IC50 came out at 133 nM. Same read-out and setting: in the case of `COC(=O)[C@@H](C)Cn1c(=O)[nH]/c(=N\c2ccc(Cl)c(C(F)(F)F)c2)n(Cc2ccc(C)cc2)c1=O` [Compound I-1000] it was 116 nM; in that of `CCc1oc2ccc(/N=c3\[nH]c(=O)n(CC(C)(C)C(=O)O)c(=O)n3Cc3ccc(Cl)cc3)cc2c1C` [Compound I-1581], 7 nM. `C[C@@H](C(=O)O)[C@H](C)n1c(=O)[nH]/c(=N\c2ccc3c(c2)OCC(=O)N3)n(Cc2ccc(Cl)cc2)c1=O` [Compound I-1786]: the IC50 was found to be 621 nM. Consider `COC(=O)CC1(Cn2c(=O)[nH]/c(=N\c3ccc(OC(C)C)c(C)c3)n(Cc3ccc(Cl)cc3)c2=O)CC1` [Compound I-0978], for which the IC50 came out at 13 nM.

Still in this assay, the particulars now being: human P2X3 receptor, Test Example 1.
`CCn1c(=O)[nH]/c(=N\c2ccc(Oc3cccc(/C=C/C(=O)OC)c3)cc2)n(Cc2ccc(Cl)cc2)c1=O` [Compound I-2224]: the IC50 came out at 33 nM. The same measure, in the same setting: in the case of `CCn1c(=O)[nH]/c(=N\c2ccc(Oc3cccc(/C=C/C(=O)O)c3)cc2)n(Cc2ccc(Cl)cc2)c1=O` [Compound I-2231] it was 3 nM; in that of `O=c1[nH]/c(=N\c2ccc(Oc3ccon3)c(F)c2)n(Cc2ccc(Cl)cc2)c(=O)n1C(CO)CO` [Compound I-2529], 73 nM. The same measure, in the same setting: in the case of `CCn1c(=O)[nH]/c(=N\c2ccc(Oc3ccc(C(N)=O)cc3)nc2)n(Cc2ccc(Cl)cc2)c1=O` [Compound I-2620] it was 110 nM; in that of `Cn1c(=O)[nH]/c(=N\c2ccc(Oc3ncc(C(N)=O)s3)cc2)n(Cc2ccc(Cl)cc2)c1=O` [Compound I-2414], 3 nM; in that of `CNC(=O)Cn1c(=O)[nH]/c(=N\c2ccc(Oc3ccon3)c(F)c2)n(Cc2ccc(Cl)cc2)c1=O` [Compound I-2587], 7 nM.

As to `CC(C)Oc1ccc(/N=c2\[nH]c(=S)n(C(C)C)c(=O)n2Cc2ccc(Cl)cc2)cc1Cl` [Compound I-2257, 1-(4-chlorobenzyl)-3-isopropyl-6-(3-chloro-4-isopropoxyphenylimino)-4-thioxo-1,3,5-triazinane-2-one], the IC50 came to 151 nM.

As for `CCOC(=O)Cn1c(=O)[nH]/c(=N\c2ccc(Oc3ccon3)c(F)c2)n(Cc2ccc(Cl)cc2)c1=O` [Compound I-2578], the half-maximal inhibitory concentration (IC50) is 6 nM. For the compound `Cc1ccc(Cn2c(=O)n(CCC(=O)O)c(=O)[nH]/c2=N\c2c(Cl)ccc(C(F)(F)F)c2C)cc1` [Compound I-2090], the half-maximal inhibitory concentration (IC50) is under 4 nM. Regarding `O=c1[nH]/c(=N\c2ccc(Oc3ccon3)cc2)n(Cc2ccc(F)cc2)c(=O)n1CCCOC1CCCCO1` (stereo not shown) [Compound I-2394], the IC50 worked out at 21 nM. The same measure, in the same setting: in the case of `O=c1[nH]/c(=N\c2ccc(Oc3ccn[nH]3)cc2)n(Cc2ccc(Cl)cc2)c(=O)n1CC(CO)CO` [Compound I-2454] it was 35 nM; in that of `CCn1c(=O)[nH]/c(=N\c2ccc(Oc3ccc(C#N)cn3)cc2)n(Cc2ccc(C)cc2)c1=O` [Compound I-2395], 4 nM.

On to `COC(=O)[C@@H](C)Cn1c(=O)[nH]/c(=N\c2ccc(CC(C)C)cc2)n(Cc2ccc(C)cc2)c1=O` [Compound I-0860], for which the IC50 was 62 nM. Consider `COC(=O)[C@@H](C)Cn1c(=O)[nH]/c(=N\c2ccc(C)c(C(F)(F)F)c2)n(Cc2ccc(Cl)cc2)c1=O` [Compound I-0841], for which the 50% inhibitory concentration (IC50) came out at 150 nM. Still for that read-out and setting: in the case of `CNC(=O)Cn1c(=O)[nH]/c(=N\c2ccc(Oc3ccnnc3)cc2)n(Cc2ccc(Cl)cc2)c1=O` [Compound I-2696] it was 8 nM; in that of `Cc1ccc(Cn2c(=O)n(C)c(=O)[nH]/c2=N\c2ccc(Oc3cc(C(=O)O)ncn3)cc2)cc1` [Compound I-2445], 13 nM; in that of `C[C@H](C(=O)O)n1c(=O)[nH]/c(=N\c2ccc(Oc3ccon3)cc2)n(Cc2ccc(Cl)cc2)c1=O` [Compound I-2486], 381 nM.

The record behind these values is patent US9718790B2, “Triazine derivative and pharmaceutical composition having an analgesic activity comprising the same” (SHIONOGI & CO., LTD., priority 2010, dated 2017).
